Measured values from the NIST ThermoML archive (doi:10.1021/je050376y).

Assays:
[1] = xn = mol fraction of the nth substance listed; details: 101 kPa, Liquid
[2] = 101 kPa, Liquid

CO [methanol] + Cc1ccc(O)cc1
[1], x2 = 0
Details | mass density [kg/m3] | viscosity [mPa·s]
308.15 K | 776.92 | 0.476
313.15 K | 772.13 | 0.445
318.15 K | 767.31 | 0.421
323.15 K | 762.46 | 0.395
328.15 K | 757.85 | 0.372

CO [methanol]
[2]
Details | mass density [kg/m3] | viscosity [mPa·s]
308.15 K | 776.92 | 0.476
313.15 K | 772.13 | 0.445
318.15 K | 767.31 | 0.421
323.15 K | 762.46 | 0.395
328.15 K | 757.85 | 0.372

Cc1ccc(O)cc1 [4-methylphenol] + CO
[1]
Details | mass density, 308.15 K [kg/m3] | mass density, 313.15 K [kg/m3] | mass density, 318.15 K [kg/m3] | mass density, 323.15 K [kg/m3] | mass density, 328.15 K [kg/m3] | viscosity, 308.15 K [mPa·s] | viscosity, 313.15 K [mPa·s] | viscosity, 318.15 K [mPa·s] | viscosity, 323.15 K [mPa·s] | viscosity, 328.15 K [mPa·s]
x1 = 0.1 | 837.27 | 832.69 | 828.09 | 823.45 | 819.09 | 0.701 | 0.652 | 0.608 | 0.568 | 0.533
x1 = 0.1999 | 881.21 | 876.78 | 872.35 | 867.89 | 863.71 | 0.977 | 0.901 | 0.834 | 0.772 | 0.719
x1 = 0.2998 | 914.53 | 910.25 | 905.93 | 901.61 | 897.58 | 1.333 | 1.218 | 1.112 | 0.998 | 0.942
x1 = 0.4 | 940.54 | 936.35 | 932.16 | 927.93 | 924.03 | 1.762 | 1.588 | 1.435 | 1.305 | 1.192
x1 = 0.4999 | 961.59 | 957.48 | 953.35 | 949.21 | 945.39 | 2.316 | 2.044 | 1.817 | 1.633 | 1.477
x1 = 0.5999 | 977.95 | 973.9 | 969.84 | 965.76 | 962.01 | 3.021 | 2.631 | 2.31 | 2.043 | 1.821
x1 = 0.6999 | 992.04 | 988.04 | 984.03 | 980 | 976.3 | 3.928 | 3.36 | 2.894 | 2.527 | 2.229
x1 = 0.8 | 1003.53 | 999.57 | 995.58 | 991.58 | 987.91 | 5.072 | 4.251 | 3.603 | 3.092 | 2.688
x1 = 0.8999 | 1013.73 | 1009.79 | 1005.83 | 1001.84 | 998.2 | 6.535 | 5.364 | 4.44 | 3.754 | 3.212
x1 = 1 | 1021.98 | 1018.05 | 1014.09 | 1010.12 | 1006.57 | 8.444 | 6.745 | 5.471 | 4.532 | 3.888

Cc1ccc(O)cc1 [4-methylphenol]
[2]
Details | mass density [kg/m3] | viscosity [mPa·s]
308.15 K | 1021.98 | 8.444
313.15 K | 1018.05 | 6.745
318.15 K | 1014.09 | 5.471
323.15 K | 1010.12 | 4.532
328.15 K | 1006.57 | 3.888
333.15 K | 1002.09 | 3.245
343.15 K | 992.07 | 2.431
353.15 K | 986.24 | 1.891

OCCO [1,2-ethanediol]
[2]
Details | mass density [kg/m3] | viscosity [mPa·s]
308.15 K | 1101.88 | 11.19
313.15 K | 1098.33 | 9.444
318.15 K | 1094.75 | 7.972
323.15 K | 1091.16 | 6.794
333.15 K | 1083.94 | 5.065
343.15 K | 1074.53 | 3.879
353.15 K | 1069.72 | 3.058

OCCO [1,2-ethanediol] + Cc1ccc(O)cc1
[1], x2 = 0
Details | mass density [kg/m3] | viscosity [mPa·s]
308.15 K | 1101.88 | 11.19
313.15 K | 1098.33 | 9.444
318.15 K | 1094.75 | 7.972
323.15 K | 1091.16 | 6.794
333.15 K | 1083.94 | 5.065
343.15 K | 1074.53 | 3.879
353.15 K | 1069.72 | 3.058
